Literature values as cited in patent US20260256858A1, “Amanita Muscaria Mushroom Extracts and Products, and Improved Processes for Producing Extracts of Amanita Muscaria Mushrooms at Kilogram Scale” (priority 2023, published 2026).

Experiments:
[1] = after ingestion of Amanita mushrooms
[2] = IV injection, 8 μmol/kg, 150 g rat

NCc1cc(=O)[nH]o1 [muscimol, 5-(aminomethyl)-1,2-oxazol-3 (2H)-one]
brain regions with the highest muscimol concentration (IV injection of 3H-muscimol, 8 μmol/kg, rat): the substantia nigra, the colliculi and the hypothalamus
amount of the dose injected that crossed to the brain [2]: approximately 0.02%
muscimol concentration in brain [2]: approximately 200 pmol/g tissue
time until blood concentration was below limits of detection (after intravenous injection, rat): ≤ 180 min
distribution in corneum stratum compared to hypothalamus, hippocampus and cortex (intracerebroventricular injection, 1200 nmol/kg, rat): approximately 2 times higher
tolerability (adverse effects or toxicity) (intravenous injection of muscimol, 8 μmol/kg, rat): well-tolerated
detection in urine after ingestion [1]: detected within an hour after ingestion

N[C@H](C(=O)O)c1cc(=O)[nH]o1 [ibotenic acid, (S)-2-amino-2-(3-hydroxyisoxazol-5-yl) acetic acid]
detection in urine after ingestion [1]: detected within an hour after ingestion
